Data on 9 compounds can be found in ChEMBL document CHEMBL5143590, “Dihydropyrimidinone imidazoles as unique structural antibacterial agents for drug-resistant gram-negative pathogens” (Eur J Med Chem, 2022).

Values after ≈ are worked out from the molar mass of the structure shown.

What all share (type): functional
Test [1] has as its system Staphylococcus aureus. Nature of the test: Antibacterial activity against methicillin-resistant Staphylococcus aureus N315 assessed as inhibition of bacterial growth by two fold serial dilution method.
The next test deals with Enterococcus faecalis. In words: Antibacterial activity against Enterococcus faecalis assessed as inhibition of bacterial growth by two fold serial dilution method.
In test [2] the test system is Staphylococcus aureus. In words: Antibacterial activity against Staphylococcus aureus assessed as inhibition of bacterial growth by two fold serial dilution method.
Test [3] concerns Staphylococcus aureus. Nature of the test: Antibacterial activity against Staphylococcus aureus 25923 assessed as inhibition of bacterial growth by two fold serial dilution method.
Test [4] deals with Staphylococcus aureus. In words: Antibacterial activity against Staphylococcus aureus 29213 assessed as inhibition of bacterial growth by two fold serial dilution method.
A further test deals with Klebsiella pneumoniae. Nature of the test: Antibacterial activity against Klebsiella pneumoniae assessed as inhibition of bacterial growth by two fold serial dilution method.
The subject of test [5] is Escherichia coli. Nature of the test: Antibacterial activity against Escherichia coli assessed as inhibition of bacterial growth by two fold serial dilution method.
For test [6], the system named is Escherichia coli. In words: Antibacterial activity against Escherichia coli 25922 assessed as inhibition of bacterial growth by two fold serial dilution method.
Test [7] has as its system Pseudomonas aeruginosa. In words: Antibacterial activity against Pseudomonas aeruginosa assessed as inhibition of bacterial growth by two fold serial dilution method.
For test [8], the system named is Pseudomonas aeruginosa. Nature of the test: Antibacterial activity against Pseudomonas aeruginosa 27853 assessed as inhibition of bacterial growth by two fold serial dilution method.
Another test relates to Acinetobacter baumannii. In words: Antibacterial activity against Acinetobacter baumannii assessed as inhibition of bacterial growth by two fold serial dilution method.

As for `NC1CCN(c2c(F)cc3c(=O)c(C(=O)O)cn(C4CC4)c3c2Cl)C1` (centres undefined) [CLINAFLOXACIN], the MIC with Staphylococcus aureus [1] amounted to 1 µg/mL (≈ 2.73 µM); in the test on Enterococcus faecalis, 0.5 µg/mL (≈ 1.37 µM); in the test on Staphylococcus aureus [2], 0.5 µg/mL (≈ 1.37 µM); in the test with Staphylococcus aureus [3], 0.5 µg/mL (≈ 1.37 µM); in the test on Staphylococcus aureus [4], 0.5 µg/mL (≈ 1.37 µM); in the test on Klebsiella pneumoniae it was 1 µg/mL (≈ 2.73 µM). Moreover, the MIC was 0.5 µg/mL (≈ 1.37 µM) in the test on Escherichia coli [5]; 1 µg/mL (≈ 2.73 µM) in the test with Escherichia coli [6]; 1 µg/mL (≈ 2.73 µM) in the test on Pseudomonas aeruginosa [7]; 1 µg/mL (≈ 2.73 µM) in the test with Pseudomonas aeruginosa [8]; 2 µg/mL (≈ 5.47 µM) in the test on Acinetobacter baumannii.
Consider `CCCCc1nc(Cl)c(C2NC(=O)NC(C)=C2C(=O)OCC)n1S(=O)(=O)c1ccc(F)cc1` (centres undefined), for which the minimum inhibitory concentration (MIC) was found to be 16 µg/mL (≈ 32.1 µM) in the test on Staphylococcus aureus [1]; 64 µg/mL (≈ 128 µM) with Enterococcus faecalis; 64 µg/mL (≈ 128 µM) in the test with Staphylococcus aureus [2]; 64 µg/mL (≈ 128 µM) in the test with Staphylococcus aureus [3]; 32 µg/mL (≈ 64.1 µM) in the test with Staphylococcus aureus [4]; 128 µg/mL (≈ 257 µM) in the test with Klebsiella pneumoniae. Further, the MIC came to 32 µg/mL (≈ 64.1 µM) with Escherichia coli [5]; 32 µg/mL (≈ 64.1 µM) in the test on Escherichia coli [6]; 32 µg/mL (≈ 64.1 µM) in the test with Pseudomonas aeruginosa [7]; 64 µg/mL (≈ 128 µM) in the test on Pseudomonas aeruginosa [8]; 64 µg/mL (≈ 128 µM) in the test on Acinetobacter baumannii.
Consider `CCCCc1nc(Cl)c(C2NC(=O)NC(C)=C2C(=O)OCC)n1CCC` (centres undefined), for which the minimum inhibitory concentration (MIC) in the test with Staphylococcus aureus [1] was 64 µg/mL (≈ 167 µM); with Enterococcus faecalis, 32 µg/mL (≈ 83.6 µM); in the test on Staphylococcus aureus [2] it was 16 µg/mL (≈ 41.8 µM); in the test with Staphylococcus aureus [3] it was 64 µg/mL (≈ 167 µM); in the test on Staphylococcus aureus [4] it was 128 µg/mL (≈ 334 µM); in the test on Klebsiella pneumoniae, 64 µg/mL (≈ 167 µM). In addition, the MIC in the test with Escherichia coli [5] was 64 µg/mL (≈ 167 µM); in the test with Escherichia coli [6] it was 32 µg/mL (≈ 83.6 µM); in the test with Pseudomonas aeruginosa [7], 32 µg/mL (≈ 83.6 µM); in the test on Pseudomonas aeruginosa [8] it was 64 µg/mL (≈ 167 µM); with Acinetobacter baumannii, 64 µg/mL (≈ 167 µM).
In the case of `CCCCc1nc(Cl)c(C2NC(=O)NC(C)=C2C(=O)OCC)n1CC(=O)N1CCOCC1` (centres undefined), the MIC is 64 µg/mL (≈ 137 µM) with Staphylococcus aureus [1]; 128 µg/mL (≈ 274 µM) with Enterococcus faecalis; 64 µg/mL (≈ 137 µM) with Staphylococcus aureus [2]; 128 µg/mL (≈ 274 µM) in the test on Staphylococcus aureus [3]; 64 µg/mL (≈ 137 µM) in the test on Staphylococcus aureus [4]; 32 µg/mL (≈ 68.4 µM) in the test with Klebsiella pneumoniae. The MIC came to 128 µg/mL (≈ 274 µM) with Escherichia coli [5]; 256 µg/mL (≈ 547 µM) in the test on Escherichia coli [6]; 64 µg/mL (≈ 137 µM) in the test on Pseudomonas aeruginosa [7]; 256 µg/mL (≈ 547 µM) in the test with Pseudomonas aeruginosa [8]; 128 µg/mL (≈ 274 µM) in the test with Acinetobacter baumannii.
Turning to `CCCCc1nc(Cl)c(C2NC(=O)NC(C)=C2C(=O)OCC)n1Cc1ccc(F)cc1` (centres undefined), the MIC turned out to be 16 µg/mL (≈ 35.6 µM) with Staphylococcus aureus [1]; 32 µg/mL (≈ 71.3 µM) with Enterococcus faecalis; 16 µg/mL (≈ 35.6 µM) with Staphylococcus aureus [2]; 32 µg/mL (≈ 71.3 µM) in the test on Staphylococcus aureus [3]; 32 µg/mL (≈ 71.3 µM) in the test with Staphylococcus aureus [4]; 16 µg/mL (≈ 35.6 µM) with Klebsiella pneumoniae. In addition, the MIC stood at 16 µg/mL (≈ 35.6 µM) in the test on Escherichia coli [5]; 16 µg/mL (≈ 35.6 µM) in the test with Escherichia coli [6]; 32 µg/mL (≈ 71.3 µM) in the test on Pseudomonas aeruginosa [7]; 32 µg/mL (≈ 71.3 µM) in the test with Pseudomonas aeruginosa [8]; 32 µg/mL (≈ 71.3 µM) in the test on Acinetobacter baumannii.
Turning to `CCCCc1nc(Cl)c(C2NC(=O)NC(C)=C2C(=O)OCC)n1S(=O)(=O)c1ccc(C(C)(C)C)cc1` (centres undefined), the minimal inhibitory concentration (MIC) in the test with Staphylococcus aureus [1] worked out at 64 µg/mL (≈ 119 µM); in the test on Enterococcus faecalis it was 128 µg/mL (≈ 238 µM); with Staphylococcus aureus [2] it was 64 µg/mL (≈ 119 µM); in the test on Staphylococcus aureus [3] it was 32 µg/mL (≈ 59.6 µM); in the test with Staphylococcus aureus [4], 64 µg/mL (≈ 119 µM); with Klebsiella pneumoniae, 128 µg/mL (≈ 238 µM). Besides, the MIC in the test on Escherichia coli [5] worked out at 64 µg/mL (≈ 119 µM); in the test with Escherichia coli [6] it was 64 µg/mL (≈ 119 µM); with Pseudomonas aeruginosa [7], 256 µg/mL (≈ 477 µM); in the test with Pseudomonas aeruginosa [8], 64 µg/mL (≈ 119 µM); in the test on Acinetobacter baumannii, 128 µg/mL (≈ 238 µM).
Consider `CCCCc1nc(Cl)c(C2NC(=O)NC(CN(c3ccc(OC)nn3)S(=O)(=O)c3ccc(N)cc3)=C2C(=O)OCC)[nH]1` (centres undefined), for which the MIC with Staphylococcus aureus [1] came out at 32 µg/mL (≈ 51.7 µM); in the test with Enterococcus faecalis it was 64 µg/mL (≈ 103 µM); with Staphylococcus aureus [2], 32 µg/mL (≈ 51.7 µM); with Staphylococcus aureus [3], 64 µg/mL (≈ 103 µM); in the test on Staphylococcus aureus [4] it was 64 µg/mL (≈ 103 µM); in the test with Klebsiella pneumoniae, 16 µg/mL (≈ 25.8 µM). Further, the minimal inhibitory concentration (MIC) in the test on Escherichia coli [5] was 128 µg/mL (≈ 207 µM); in the test with Escherichia coli [6], 64 µg/mL (≈ 103 µM); in the test with Pseudomonas aeruginosa [7], 128 µg/mL (≈ 207 µM); in the test with Pseudomonas aeruginosa [8], 16 µg/mL (≈ 25.8 µM); with Acinetobacter baumannii it was 64 µg/mL (≈ 103 µM).
Take `C#CCn1c(CCCC)nc(Cl)c1C1NC(=O)NC(C)=C1C(=O)OCC` (centres undefined): the MIC in the test with Staphylococcus aureus [1] was found to be 64 µg/mL (≈ 169 µM); with Enterococcus faecalis, 64 µg/mL (≈ 169 µM); with Staphylococcus aureus [2] it was 64 µg/mL (≈ 169 µM); in the test on Staphylococcus aureus [3] it was 128 µg/mL (≈ 338 µM); with Staphylococcus aureus [4], 64 µg/mL (≈ 169 µM); in the test with Klebsiella pneumoniae it was 32 µg/mL (≈ 84.5 µM). The MIC with Escherichia coli [5] was found to be 128 µg/mL (≈ 338 µM); with Escherichia coli [6], 64 µg/mL (≈ 169 µM); in the test on Pseudomonas aeruginosa [7] it was 64 µg/mL (≈ 169 µM); in the test with Pseudomonas aeruginosa [8], 128 µg/mL (≈ 338 µM); in the test with Acinetobacter baumannii it was 64 µg/mL (≈ 169 µM).
On to `CCCCc1nc(Cl)c(C2NC(=O)NC(C)=C2C(=O)OCC)n1S(=O)(=O)c1ccc(C(F)(F)F)cc1` (centres undefined), for which the MIC turned out to be 8 µg/mL (≈ 14.6 µM) in the test with Staphylococcus aureus [1]; 16 µg/mL (≈ 29.1 µM) in the test with Enterococcus faecalis; 64 µg/mL (≈ 117 µM) in the test on Staphylococcus aureus [2]; 32 µg/mL (≈ 58.3 µM) in the test on Staphylococcus aureus [3]; 8 µg/mL (≈ 14.6 µM) in the test with Staphylococcus aureus [4]; 64 µg/mL (≈ 117 µM) in the test with Klebsiella pneumoniae. The minimum inhibitory concentration (MIC) in the test on Escherichia coli [5] stood at 32 µg/mL (≈ 58.3 µM); with Escherichia coli [6], 64 µg/mL (≈ 117 µM); in the test with Pseudomonas aeruginosa [7], 32 µg/mL (≈ 58.3 µM); in the test with Pseudomonas aeruginosa [8], 64 µg/mL (≈ 117 µM); in the test with Acinetobacter baumannii, 16 µg/mL (≈ 29.1 µM).
